Data reported in the NIST ThermoML archive (doi:10.1021/je301123j).
± gives the expanded uncertainty stated by the source.

How the values were obtained:
[1] = xn = mol fraction of the nth substance listed; settings: x2 = 0; for surface tension liquid-gas: Ring tensiometer; for mass density / speed of sound / viscosity: 100 kPa, Liquid
[2] = for surface tension liquid-gas: Ring tensiometer; for mass density / speed of sound / viscosity: 100 kPa, Liquid

| SMILES | surface tension liquid-gas ([1]; 293.15 K) | mass density ([1]; 293.15 K) | speed of sound ([1]; 293.15 K) | viscosity ([1]; 293.15 K) | surface tension liquid-gas ([1]; 303.15 K) | surface tension liquid-gas ([2]; 293.15 K) | mass density ([2]; 293.15 K) | speed of sound ([2]; 293.15 K) | viscosity ([2]; 293.15 K) | surface tension liquid-gas ([2]; 303.15 K) | mass density ([2]; 303.15 K) | speed of sound ([2]; 303.15 K) | viscosity ([2]; 303.15 K) | surface tension liquid-gas ([2]; 313.15 K) | mass density ([2]; 313.15 K) | speed of sound ([2]; 313.15 K) | viscosity ([2]; 313.15 K) | mass density ([2]; 323.15 K) | speed of sound ([2]; 323.15 K) | viscosity ([2]; 323.15 K) | also measured |
| --- | --- | --- | --- | --- | --- | --- | --- | --- | --- | --- | --- | --- | --- | --- | --- | --- | --- | --- | --- | --- | --- |
| OCCN(CCO)CCO [triethanolamine] + CCN1CCCC1=O | 46.3 ± 0.9 mN/m | 1123.51 ± 2.1 kg/m3 | 1626.9 ± 3.9 m/s | 951.79 ± 95 mPa·s | 45.6 ± 0.8 mN/m | – | – | – | – | – | – | – | – | – | – | – | – | – | – | – | mass density ([1]; 303.15 K): 1118 ± 2.1 kg/m3; speed of sound ([1]; 303.15 K): 1605.3 ± 3.8 m/s; viscosity ([1]; 303.15 K): 413.68 ± 30 mPa·s; surface tension liquid-gas ([1]; 313.15 K): 44.8 ± 0.8 mN/m; mass density ([1]; 313.15 K): 1112.34 ± 2 kg/m3; speed of sound ([1]; 313.15 K): 1587.8 ± 3.8 m/s; viscosity ([1]; 313.15 K): 204.57 ± 9.8 mPa·s; mass density ([1]; 323.15 K): 1106.7 ± 2 kg/m3; speed of sound ([1]; 323.15 K): 1571.9 ± 3.8 m/s; viscosity ([1]; 323.15 K): 111.34 ± 3.1 mPa·s |
| OCCN(CCO)CCO [triethanolamine] | – | – | – | – | – | 46.3 ± 0.9 mN/m | 1123.51 ± 2.1 kg/m3 | 1626.9 ± 3.9 m/s | 951.79 ± 95 mPa·s | 45.6 ± 0.8 mN/m | 1118 ± 2.1 kg/m3 | 1605.3 ± 3.8 m/s | 413.68 ± 30 mPa·s | 44.8 ± 0.8 mN/m | 1112.34 ± 2 kg/m3 | 1587.8 ± 3.8 m/s | 204.57 ± 9.8 mPa·s | 1106.7 ± 2 kg/m3 | 1571.9 ± 3.8 m/s | 111.34 ± 3.1 mPa·s | – |
| NCCO [2-aminoethan-1-ol] + CCN1CCCC1=O | 49.7 ± 0.9 mN/m | 1015.93 ± 1.1 kg/m3 | 1734.4 ± 4 m/s | 24.23 ± 0.24 mPa·s | 47.8 ± 0.9 mN/m | – | – | – | – | – | – | – | – | – | – | – | – | – | – | – | mass density ([1]; 303.15 K): 1008.02 ± 1 kg/m3; speed of sound ([1]; 303.15 K): 1702.1 ± 4 m/s; viscosity ([1]; 303.15 K): 14.99 ± 0.15 mPa·s; surface tension liquid-gas ([1]; 313.15 K): 47.1 ± 0.9 mN/m; mass density ([1]; 313.15 K): 1000.06 ± 0.95 kg/m3; speed of sound ([1]; 313.15 K): 1670.1 ± 3.9 m/s; viscosity ([1]; 313.15 K): 9.776 ± 0.1 mPa·s; mass density ([1]; 323.15 K): 992.05 ± 1 kg/m3; speed of sound ([1]; 323.15 K): 1637.2 ± 3.9 m/s; viscosity ([1]; 323.15 K): 6.765 ± 0.076 mPa·s |
| OCCNCCO [diethanolamine] + CCN1CCCC1=O | 47.4 ± 0.9 mN/m | 1096.45 ± 1.9 kg/m3 | 1739.2 ± 4 m/s | 892.04 ± 87 mPa·s | 46.6 ± 0.9 mN/m | – | – | – | – | – | – | – | – | – | – | – | – | – | – | – | mass density ([1]; 303.15 K): 1090.02 ± 1.8 kg/m3; speed of sound ([1]; 303.15 K): 1711.3 ± 4 m/s; viscosity ([1]; 303.15 K): 394.2 ± 28 mPa·s; surface tension liquid-gas ([1]; 313.15 K): 46 ± 0.9 mN/m; mass density ([1]; 313.15 K): 1083.51 ± 1.8 kg/m3; speed of sound ([1]; 313.15 K): 1685.9 ± 3.9 m/s; viscosity ([1]; 313.15 K): 191.32 ± 8.8 mPa·s; mass density ([1]; 323.15 K): 1077.05 ± 1.7 kg/m3; speed of sound ([1]; 323.15 K): 1661.1 ± 3.9 m/s; viscosity ([1]; 323.15 K): 102.72 ± 2.6 mPa·s |
| NCCO [2-aminoethan-1-ol] | – | – | – | – | – | 49.7 ± 0.9 mN/m | 1015.93 ± 1.1 kg/m3 | 1734.4 ± 4 m/s | 24.23 ± 0.24 mPa·s | 47.8 ± 0.9 mN/m | 1008.02 ± 1 kg/m3 | 1702.1 ± 4 m/s | 14.99 ± 0.15 mPa·s | 47.1 ± 0.9 mN/m | 1000.06 ± 0.95 kg/m3 | 1670.1 ± 3.9 m/s | 9.776 ± 0.1 mPa·s | 992.05 ± 1 kg/m3 | 1637.2 ± 3.9 m/s | 6.765 ± 0.076 mPa·s | – |
| CCN1CCCC1=O [1-ethyl-2-pyrrolidinone] | – | – | – | – | – | 36.5 ± 0.8 mN/m | 997.91 ± 1.6 kg/m3 | 1513.2 ± 4.1 m/s | 2.132 ± 0.032 mPa·s | 35.2 ± 0.8 mN/m | 989.34 ± 1.6 kg/m3 | 1475 ± 4.1 m/s | 1.777 ± 0.027 mPa·s | 34.2 ± 0.8 mN/m | 980.76 ± 1.7 kg/m3 | 1437.6 ± 4.1 m/s | 1.515 ± 0.023 mPa·s | 972.16 ± 1.8 kg/m3 | 1400.6 ± 4 m/s | 1.31 ± 0.02 mPa·s | – |
| OCCNCCO [diethanolamine] | – | – | – | – | – | 47.4 ± 0.9 mN/m | 1096.45 ± 1.9 kg/m3 | 1739.2 ± 4 m/s | 892.04 ± 87 mPa·s | 46.6 ± 0.9 mN/m | 1090.02 ± 1.8 kg/m3 | 1711.3 ± 4 m/s | 394.2 ± 28 mPa·s | 46 ± 0.9 mN/m | 1083.51 ± 1.8 kg/m3 | 1685.9 ± 3.9 m/s | 191.32 ± 8.8 mPa·s | 1077.05 ± 1.7 kg/m3 | 1661.1 ± 3.9 m/s | 102.72 ± 2.6 mPa·s | – |
